Experimental findings from patent US8802678B2, “Carbonylated (aza) cyclohexanes as dopamine D3 receptor ligands” (Bioprojet, priority 2006, dated 2014) are described below.

SMILES strings stand for the structures.

In general, melting point refers to the temperature of the solid-liquid transition.

`CCC(=O)C(=O)N1CCC(CCN2CCN(c3cccc(C(F)(F)F)c3)CC2)CC1.Cl`: the melting point came out at 148 °C.
In the case of `N#CCC(=O)N[C@H]1CC[C@H](CCN2CC=C(c3ccccc3F)CC2)CC1` it was 156 °C; in that of `N#CCC(=O)N[C@H]1CC[C@H](CCN2CC=C(c3ccccc3)CC2)CC1`, 203 °C.
In turn, `CC(C)OCC(=O)N[C@H]1CC[C@H](CCN2CCN(c3cccc(F)c3F)CC2)CC1.Cl` came in with a melting point of 215 °C.
To `COc1ccc(Cl)cc1N1CCN(CCC2CCN(CC(C)=O)CC2)CC1.Cl.Cl` belongs 275 °C.
The compound `Cl.N#CCCC(=O)N[C@H]1CC[C@H](CCN2CCN(c3cccc(C(F)(F)F)c3)CC2)CC1` yielded a melting point of 230 °C.
The compound `CCOCC(=O)N1CCC(CCN2CCN(c3cccc(C(F)(F)F)c3)CC2)CC1.Cl` had a melting point of 145 °C.
To `Cl.N#CCCCC(=O)N1CCC(CCN2CCN(c3cccc(C(F)(F)F)c3)CC2)CC1` belongs 95 °C.
To `CC(=O)CN1CCC(CCN2CC=C(c3cccc(Cl)c3Cl)CC2)CC1.Cl.Cl` belongs 296 to 297 °C.
The compound `CCc1cccc(N2CCN(CC[C@H]3CC[C@H](NC(=O)CCCC#N)CC3)CC2)c1.Cl` gave a melting point of 205 °C.
`Cl.Cl.NC(=O)CN1CCC(CCN2CCN(c3cccc(C(F)(F)F)c3)CC2)CC1`: the melting point turned out to be 120 °C.
To `CC(=O)CN1CCC(CCN2CCN(c3cc(F)cc(F)c3)CC2)CC1.Cl.Cl` belongs 260 °C; to `CC(=O)CN1CCC(CCN2CCN(c3cc(C)ccc3Cl)CC2)CC1.Cl.Cl`, 283 °C; to `CC(=O)CN1CCC(CCN2CCN(c3cccc(C(F)(F)F)c3C)CC2)CC1.Cl.Cl`, 300 °C.
For the compound `CC(=O)CN1CCC(CCN2CCN(c3cc(F)ccc3C)CC2)CC1.Cl.Cl`, the melting point came to 281 °C.
As for `CC(=O)CN1CCC(CCN2CC=C(c3cccc(C(F)(F)F)c3)CC2)CC1.Cl.Cl`, the melting point is 268 °C.
`CCc1cccc(C2=CCN(CC[C@H]3CC[C@H](NC(=O)CCCC#N)CC3)CC2)c1` came in with a melting point of 147 °C.
To `Cl.Cl.O=C(CN1CCC(CCN2CCN(c3cccc(C(F)(F)F)c3)CC2)CC1)c1ccc(F)c(F)c1` belongs 220 °C.
Consider `CC(=O)CCCN1CCC(CCN2CCN(c3cccc(C(F)(F)F)c3)CC2)CC1.Cl.Cl`, for which the melting point came out at 315 °C.
For `CC(=O)CN1CCC(CCN2CCN(c3cccc4cccnc34)CC2)CC1.Cl.Cl`, the melting point is 270 °C.
In the case of `CCCc1cccc(N2CCN(CCC3CCN(CC(C)=O)CC3)CC2)c1.Cl.Cl` it was 256 °C; in that of `CC(=O)CN1CCC(CCN2CCN(c3cccc(F)c3F)CC2)CC1.Cl.Cl`, 270 °C.
`N#CCC(=O)N[C@H]1CC[C@H](CCN2CC=C(c3ccc(F)cc3)CC2)CC1`: the melting point was determined as 202 °C.
`CC(=O)CN1CCC(CCN2CCN(c3cc(C)c(F)cc3Cl)CC2)CC1.Cl.Cl` returned a melting point of 344 °C.
The compound `CC(=O)CN1CCC(CCN2CCN(c3cc(C)cc(Cl)c3)CC2)CC1.Cl.Cl` registered a melting point of 300 °C.
With `CC(=O)CN1CCC(CCN2CCN(c3cccc(F)c3)CC2)CC1.Cl.Cl`, the melting point stood at 268 °C.
In turn, `CCOc1cccc(N2CCN(CCC3CCN(CC(C)=O)CC3)CC2)c1.Cl.Cl` displayed a melting point of 246 °C.
Turning to `COc1cc(N2CCN(CCC3CCN(CC(C)=O)CC3)CC2)cc(C(F)(F)F)c1.Cl.Cl`, the melting point lay within 277 to 278 °C.
The compound `CC(=O)CN1CCC(CCN2CCN(c3ccc(Cl)cc3F)CC2)CC1.Cl.Cl` displayed a melting point of 206 °C.
`CC(=O)CN1CCC(CCN2CCN(c3ccc(C(F)(F)F)cc3F)CC2)CC1.Cl.Cl` showed a melting point of 278 to 279 °C.
To `CCOCC(=O)N[C@H]1CC[C@H](CCN2CCN(c3ccc(C)c(Cl)c3)CC2)CC1.Cl` belongs 162 °C; to `CCOCC(=O)N[C@H]1CC[C@H](CCN2CC=C(c3ccc(F)cc3)CC2)CC1`, 122 °C; to `CC(=O)CN1CCC(CCN2CCN(c3ccc(Cl)c(Cl)c3F)CC2)CC1.Cl.Cl`, 230 °C.
The compound `CC(=O)CN1CCC(CCN2CCN(c3cc(C(F)(F)F)ccc3F)CC2)CC1.Cl.Cl` showed a melting point of 230 °C.
Regarding `CC(=O)CN1CCC(CCN2CCN(c3ccc4c(c3)CCC4)CC2)CC1.Cl.Cl`, the melting point is 291 °C.
`N#CCCCC(=O)N[C@H]1CC[C@H](CCN2CC=C(c3ccc(C(F)(F)F)cc3)CC2)CC1` registered a melting point of 185 °C.
In the case of `CC(=O)CN1CCC(CCN2CCN(c3cccc4c3OCCCO4)CC2)CC1.Cl.Cl` it was 280 °C; in that of `CC(=O)CN1CCC(CCN2CCN(c3cccc(C(C)(F)F)c3)CC2)CC1.Cl.Cl`, 256 °C.
In turn, `CC(=O)CN1CCC(CCN2CC=C(c3ccc(Cl)cc3)CC2)CC1` registered a melting point of 101 °C.
Take `CC(=O)CN1CCC(CCN2CCN(c3ccc(C#N)cc3)CC2)CC1.Cl.Cl`: the melting point stood at 295 °C.
The compound `CC(=O)CN1CCC(CCN2CC=C(c3ccc(F)cc3)CC2)CC1` displayed a melting point of 72 °C.
Compound `CC(=O)CN1CCC(CCN2CCN(c3cc(Cl)ccc3Cl)CC2)CC1.Cl.Cl` gave a melting point of 172 °C.
In turn, `CC(=O)CN1CCC(CCN2CC=C(c3cccc4c3CCC4)CC2)CC1.Cl.Cl` showed a melting point of 291 °C.
As to `CC(=O)CN1CCC(CCN2CCN(c3cccc(S(C)(=O)=O)c3)CC2)CC1.Cl.Cl`, the melting point was found to be 260 °C.
In the case of `CC(=O)CN1CCC(CCN2CC=C(c3ccccc3)CC2)CC1` it was 80 °C; in that of `CC(=O)CN1CCC(CCN2CCN(c3ccc(C)c(F)c3)CC2)CC1.Cl.Cl`, 276 °C.
On to `CC(=O)CN1CCC(CCN2CCN(c3ccc(Cl)c(C(F)(F)F)c3)CC2)CC1.Cl.Cl`, for which the melting point was 263 °C.
To `CC(=O)CN1CCC(CCN2CCN(c3cccc(-c4ccccc4)c3)CC2)CC1.Cl.Cl` belongs 235 °C.
In the case of `CC(=O)CN1CCC(CCN2CCN(c3ccc(F)cc3C)CC2)CC1.Cl.Cl` it was 283 °C; in that of `CC(=O)CN1CCC(CCN2CCC(c3cccc4c3CCC4)CC2)CC1.Cl.Cl`, 339 °C; in that of `COc1ccc(C(F)(F)F)cc1N1CCN(CCC2CCN(CC(C)=O)CC2)CC1.Cl.Cl`, 260 °C.
In the case of `CCCC(=O)CN1CCC(CCN2CCN(c3cccc4c3CCC4)CC2)CC1.Cl.Cl` it was 270 °C; in that of `CC(=O)CN1CCC(CCN2CCN(c3c(C)cccc3C)CC2)CC1.Cl.Cl`, 249 °C; in that of `COc1ccc(Cl)c(N2CCN(CCC3CCN(CC(C)=O)CC3)CC2)c1.Cl.Cl`, 263 °C.
Consider `CC(=O)CN1CCC(CCN2CCN(c3cccc4c3CCCCC4)CC2)CC1.Cl.Cl`, for which the melting point came out at 300 °C.
Consider `CC(=O)CN1CCC(CCN2CCN(c3cc(F)cc(C(F)(F)F)c3)CC2)CC1.Cl.Cl`, for which the melting point came to 295 °C.
Turning to `CC(=O)CN1CCC(CCN2CCN(c3cccc(Oc4ccccc4)c3)CC2)CC1.Cl.Cl`, the melting point worked out at 241 °C.
`CC(=O)CN1CCC(CCN2CCN(c3ccccc3C(F)(F)F)CC2)CC1.Cl.Cl` gave a melting point of 290 °C.
`CC(=O)CN1CCC(CCN2CCN(c3ccc(Cl)cc3)CC2)CC1.Cl.Cl` gave a melting point of 277 °C.
Compound `CC(=O)CN1CCC(CCN2CCN(c3cccc(C(C)C)c3)CC2)CC1.Cl.Cl` returned a melting point of 252 °C.
In the case of `Cl.N#CCCCC(=O)N1CCC(CCN2CCN(c3cccc4c3CCC4)CC2)CC1` it was 210 °C; in that of `CC(=O)CN1CCC(CCN2CCN(c3cc(Cl)ccc3F)CC2)CC1.Cl.Cl`, 270 °C; in that of `COCc1cccc(N2CCN(CCC3CCN(CC(C)=O)CC3)CC2)c1.Cl.Cl`, 255 °C.
With `CC(=O)CN1CCC(CCN2CCN(c3cc(Cl)c(Cl)cc3Cl)CC2)CC1.Cl.Cl`, the melting point was found to be 261 °C.
Compound `Cl.N#CCCC(=O)N1CCC(CCN2CCN(c3cc(Cl)cc(C(F)(F)F)c3)CC2)CC1` yielded a melting point of 128 °C.
Consider `CC(=O)CN1CCC(CCN2CCN(c3cc(Cl)ccc3C)CC2)CC1.Cl.Cl`, for which the melting point is 259 °C.
`Cc1cccc(C2=CCN(CC[C@H]3CC[C@H](NC(=O)C4=CCCC4)CC3)CC2)c1C#N` returned a melting point of 183 °C.
As for `CC(=O)CN1CCC(CCN2CC=C(c3cc(F)cc(C(F)(F)F)c3)CC2)CC1.Cl.Cl`, the melting point was 287 °C.
Compound `N#CCC(=O)N[C@H]1CC[C@H](CCN2CC=C(c3cc(F)cc(C(F)(F)F)c3)CC2)CC1` came in with a melting point of 163 °C.
In the case of `N#CCCCC(=O)N[C@H]1CC[C@H](CCN2CC=C(c3cc(F)cc(C(F)(F)F)c3)CC2)CC1` it was 114 °C; in that of `CC(=O)CN1CCC(CCN2CCN(c3ccc(Cl)c(Cl)c3Cl)CC2)CC1.Cl.Cl`, 275 °C.
`Cl.O=C(CC(F)(F)F)N1CCC(CCN2CCN(c3cccc4c3CCC4)CC2)CC1` showed a melting point of 206 °C.
With `Cc1ccccc1C1=CCN(CC[C@H]2CC[C@H](NC(=O)CCCC#N)CC2)CC1`, the melting point was found to be 140 °C.
Regarding `CC(=O)CN1CCC(CCN2CCN(c3ccccc3CC(C)C)CC2)CC1.Cl.Cl`, the melting point is 285 °C.
`COCC(=O)N[C@H]1CC[C@H](CCN2CC=C(c3cccc(C#N)c3)CC2)CC1` had a melting point of 117 °C.
`N#Cc1cccc(C2=CCN(CC[C@H]3CC[C@H](NC(=O)CCC(F)(F)F)CC3)CC2)c1` came in with a melting point of 177 °C.
Regarding `CC(=O)CN1CCC(CCN2CCN(c3cc(Cl)c(Cl)cc3F)CC2)CC1.Cl.Cl`, the melting point was 309 °C (dec.).
For `CC(=O)CN1CCC(CCN2CCN(c3cccc(Cl)c3C)CC2)CC1.Cl.Cl`, the melting point was in the range of 320 to 325 °C.
`CC(C)(C)OC(=O)N1CCC(CCN2CCN(c3cccc(C(F)(F)F)c3)CC2)CC1.Cl` registered a melting point of 188 °C.
To `COCCCC(=O)N[C@H]1CC[C@H](CCN2CC=C(c3cccc(C(F)(F)F)c3)CC2)CC1` belongs 145 °C; to `CCOCC(=O)N[C@H]1CC[C@H](CCN2CC=C(c3cccc(C(F)(F)F)c3)CC2)CC1`, 75 °C; to `CC(=O)CN1CCC(CCN2CCN(c3ccccc3F)CC2)CC1.Cl.Cl`, 250 °C.
